Assay results reported in the supplement of paper PMC13380429.

How the values were obtained:
Details in all cases: 72 h
HepG2 [1] = assay: cell viability relative to DMSO; higher = less toxic
Calu-3 [2] = assay: as above
U2OS [3] = assay: as above
Caco-2 [4] = assay: as above
Vero E6 [5] = assay: as above
HepG2 [6] = assay: drug sensitivity score (DSS) for viability; higher = more toxic; extreme values may be limits of the assay
Calu-3 [7] = assay: as above
U2OS [8] = assay: as above
Caco-2 [9] = assay: as above
Vero E6 [10] = assay: as above
HepG2 [11] = assay: relative viability EC50 (midpoint between 100% and the lowest measured viability); higher = less toxic
Calu-3 [12] = assay: as above
U2OS [13] = assay: as above
Caco-2 [14] = assay: as above
Vero E6 [15] = assay: as above

| Compound | cell viability (HepG2 [1]; 1 nM) [%] | cell viability (HepG2 [1]; 10 nM) [%] | cell viability (HepG2 [1]; 100 nM) [%] | cell viability (HepG2 [1]; 1000 nM) [%] | cell viability (HepG2 [1]; 10000 nM) [%] | cell viability (Calu-3 [2]; 1 nM) [%] | cell viability (Calu-3 [2]; 10 nM) [%] | cell viability (Calu-3 [2]; 100 nM) [%] | cell viability (Calu-3 [2]; 1000 nM) [%] | cell viability (Calu-3 [2]; 10000 nM) [%] | cell viability (U2OS [3]; 1 nM) [%] | cell viability (U2OS [3]; 10 nM) [%] | cell viability (U2OS [3]; 100 nM) [%] | cell viability (U2OS [3]; 1000 nM) [%] | cell viability (U2OS [3]; 10000 nM) [%] | cell viability (Caco-2 [4]; 1 nM) [%] | cell viability (Caco-2 [4]; 10 nM) [%] | cell viability (Caco-2 [4]; 100 nM) [%] | cell viability (Caco-2 [4]; 1000 nM) [%] | cell viability (Caco-2 [4]; 10000 nM) [%] | cell viability (Vero E6 [5]; 1 nM) [%] | cell viability (Vero E6 [5]; 10 nM) [%] | cell viability (Vero E6 [5]; 100 nM) [%] | cell viability (Vero E6 [5]; 1000 nM) [%] | cell viability (Vero E6 [5]; 10000 nM) [%] | drug sensitivity score (HepG2 [6]) | drug sensitivity score (Calu-3 [7]) | drug sensitivity score (U2OS [8]) | drug sensitivity score (Caco-2 [9]) | drug sensitivity score (Vero E6 [10]) | relative viability EC50 (HepG2 [11]) [µM] | relative viability EC50 (Calu-3 [12]) [µM] | relative viability EC50 (U2OS [13]) [µM] | relative viability EC50 (Caco-2 [14]) [µM] | relative viability EC50 (Vero E6 [15]) [µM] |
| --- | --- | --- | --- | --- | --- | --- | --- | --- | --- | --- | --- | --- | --- | --- | --- | --- | --- | --- | --- | --- | --- | --- | --- | --- | --- | --- | --- | --- | --- | --- | --- | --- | --- | --- | --- |
| C=CCNC(=O)c1cc([N+](=O)[O-])cc2c(=O)[nH]c(Nc3ccc(Cl)c(Cl)c3)nc12 | 104 | 90.5 | 100 | 91.9 | 95.8 | 104 | 93.2 | 103 | 102 | 94 | 97.7 | 96.2 | 102 | 98 | 92.1 | 100 | 95.5 | 99.1 | 96.5 | 98.4 | 92.4 | 94.3 | 92.9 | 97.5 | 97.7 | 0 | 0 | 0 | 0 | 0 | > 10 | > 10 | > 10 | > 10 | > 10 |
| CC#CCOC(=O)c1c(C)nc2sc3c(c2c1N)CCC(O)C3 (stereo not given) | 100 | 94.8 | 89.9 | 106 | 91.4 | 113 | 93.6 | 102 | 101 | 97.4 | 100 | 94.6 | 103 | 93.8 | 95.9 | 97.3 | 91.4 | 101 | 92.3 | 90.2 | 91.6 | 97 | 88.6 | 93.2 | 98.9 | 0 | 0 | 0 | 0 | 0 | > 10 | > 10 | > 10 | > 10 | > 10 |
| CC(C)Oc1cccc(CC(=O)N2CCC[C@](CC[N+]34CCC(c5ccccc5)(CC3)CC4)(c3ccc(Cl)c(Cl)c3)C2)c1 | 110 | 84.1 | 104 | 91 | 95.7 | 87.6 | 98.1 | 91.1 | 92.5 | 99.1 | 96.8 | 99.4 | 96.8 | 99.3 | 98.8 | 102 | 99.7 | 100 | 97.9 | 91.8 | 101 | 98.2 | 100 | 95.8 | 97 | 0 | 0 | 0 | 0 | 0 | > 10 | > 10 | > 10 | > 10 | > 10 |
| CCCN(CCC)C1Cc2cc(OC)c(OC)cc2C1 | 96.1 | 106 | 101 | 99.8 | 94.6 | 96.9 | 108 | 92.3 | 93.7 | 108 | 102 | 97.5 | 100 | 99.5 | 104 | 96.6 | 99.6 | 94.1 | 98.3 | 89.9 | 103 | 103 | 103 | 102 | 99 | 0 | 0 | 0 | 0 | 0 | > 10 | > 10 | > 10 | > 10 | > 10 |
| CCOc1cc(/C=C2/C(=O)N(c3ccccc3)N=C2C)cc(Cl)c1OCC(=O)OC | 96.5 | 101 | 96.1 | 98.3 | 91.6 | 92.9 | 95.9 | 105 | 94.8 | 108 | 102 | 100 | 98.2 | 96.2 | 99.4 | 102 | 108 | 92.4 | 92.9 | 97.4 | 104 | 106 | 103 | 102 | 97.7 | 0 | 0 | 0 | 0 | 0 | > 10 | > 10 | > 10 | > 10 | > 10 |
| CCn1cnc2c(Nc3cccc(Cl)c3)nc(N[C@@H]3CCCC[C@@H]3N)nc21 | 91.4 | 112 | 103 | 106 | 1.1 | 97.4 | 90.9 | 108 | 101 | 19.5 | 102 | 94.4 | 102 | 95.3 | 0.9 | 91.9 | 98.8 | 103 | 96.8 | 27.8 | 94.1 | 98.9 | 96.1 | 97.2 | 6.3 | 5 | 4.4 | 6.2 | 4.4 | 5.6 | 3.5 | 3.25 | 2.8 | 2.82 | 2.94 |
